Calls of active or inactive are those of the source.
Experiments:
[1] = target: Adenosylmethionine-8-amino-7-oxononanoate aminotransferase (Mycobacterium tuberculosis, UniProt P9WQ81); experiment: Mycobacterium tuberculosis BioA enzyme inhibitor Measured in Biochemical System Using Plate Reader - 2163-02_Inhibitor_Dose_CherryPick_Activity.; type: functional, Mycobacterium tuberculosis UT205
Cytochrome P450 2D6 = Cytochrome P450 2D6 (Homo sapiens, UniProt P10635);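 further: CYP2D6 member of a cytochrome P450 panel assay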
Cytochrome P450 3A4 = Cytochrome P450 3A4 (Homo sapiens, UniProt P08684);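 further: CYP3A4 tested as one member of a cytochrome P450 panel screen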
Cytochrome P450 1A2 = target: T1, Cytochrome P450 1A2 (Homo sapiens, UniProt P05177);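 further: PubChem cytochrome P450 panel assay, CYP1A2 panel member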
T1 sequence (P05177 whole entry): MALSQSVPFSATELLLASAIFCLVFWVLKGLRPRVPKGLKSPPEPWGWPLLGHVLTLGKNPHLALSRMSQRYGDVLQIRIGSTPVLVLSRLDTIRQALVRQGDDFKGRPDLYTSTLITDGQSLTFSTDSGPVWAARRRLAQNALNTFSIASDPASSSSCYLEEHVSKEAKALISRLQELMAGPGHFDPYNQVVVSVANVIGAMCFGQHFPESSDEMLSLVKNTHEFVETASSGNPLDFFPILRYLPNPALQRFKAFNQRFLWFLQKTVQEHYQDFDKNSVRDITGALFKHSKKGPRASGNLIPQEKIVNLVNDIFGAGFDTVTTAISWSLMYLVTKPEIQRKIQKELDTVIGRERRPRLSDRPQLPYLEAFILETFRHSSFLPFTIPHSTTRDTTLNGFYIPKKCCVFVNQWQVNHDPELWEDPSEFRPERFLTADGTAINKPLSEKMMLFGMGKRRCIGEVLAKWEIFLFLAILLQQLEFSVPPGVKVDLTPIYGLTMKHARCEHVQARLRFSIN

[2] = loss of viability in HepG2 cells – cell-based, CellTiter-Glo, cherry-picked, cytotoxicity control for Shn3 inhibitor project, dose response (AID 624134); type: functional
Interleukin-8 [3] = target: T2, Interleukin-8 (Homo sapiens, UniProt P10145); experiment: Dose Response confirmation of uHTS small molecule hits for cystic fibrosis induced NFkb Inhibitors in a TNFa-induced IL8 counterscreen.; type: functional; settings: read-out: IC50_Mean
T2 sequence (P10145 whole entry): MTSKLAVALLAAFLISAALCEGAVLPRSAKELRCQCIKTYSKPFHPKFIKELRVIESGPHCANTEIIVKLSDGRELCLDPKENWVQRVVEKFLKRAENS

Mu-type opioid receptor = Mu-type opioid receptor (Homo sapiens, UniProt P35372); type: functional, cell-based;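 further: U2OS cells with beta-arrestin recruitment to OPRM1 by beta-gal complementation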
Fatty acid synthase [4] = target: T3, Fatty acid synthase (Homo sapiens, UniProt P49327); experiment: inhibition of human FAS-TE enzyme activity – biochemical, endpoint fluorescence intensity, uHTS hits, dose response (AID 624327); type: functional;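 further: fluorescence from hydrolysis of an O-methyl fluorescein acyl ester substrate by the enzyme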
[5] = target: 5-hydroxytryptamine receptor 2A (Mus musculus, UniProt P35363); type: functional, cell-based;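 further: CHO-K1 cells with tagged receptor and beta-arrestin; agonist potency measured as compound-induced activation of the receptor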
Interleukin-8 [6] = target: T2, Interleukin-8; experiment: Dose Response confirmation of uHTS small molecule hits for cystic fibrosis induced NFkb Inhibitors in a PAF-induced IL8 counterscreen.; type: functional; settings: read-out: IC50_Mean
[7] = non-specific 3'UTR reporter inhibition in Clone20-Shn3RL – cell-based, Renilla luciferase, cherry-picked, counter-screen for Shn3 inhibitor project, dose response (AID 624133); type: functional
[8] = reduction of Shn3 3'UTR-driven luciferase in osteoblasts – cell-based, Clone20 osteoblasts, firefly luciferase, cherry-picked, dose response (AID 624132); type: functional;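 further: firefly luciferase luminescence from reporter carrying the Shn3 3'UTR in osteoblasts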
Fatty acid synthase [9] = target: T3, Fatty acid synthase; experiment: inhibition of human FAS-TE enzyme activity – biochemical, kinetic fluorescence intensity, dose response (AID 624326); type: functional;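 further: rate of fluorescence rise from hydrolysis of a fluorogenic O-methyl fluorescein ester substrate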
HEK293 = experiment: EBV LMP1 TES2 canonical NF-kB signalling blockers – cell-based, HEK293, luciferase, cherry-pick, dose response (AID 588343); type: functional; settings: Homo sapiens
[10] = target: Benomyl/methotrexate resistance protein (Candida albicans, UniProt P28873); experiment: Candida albicans Mdr1 pump inhibition curves – singleplex, Cherry Pick1 hits, dose response (AID 588608); type: functional
[11] = cAMP pathway inhibition in counterscreen cell line – TR-FRET cAMP detection, counter-screen for MC4R biased antagonist project, dose response (AID 602305); type: functional, cell-based;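 further: U2OS cells stimulated with forskolin near its EC80 as the cAMP inducer; potency is for inhibition of forskolin-stimulated cAMP signaling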
Melanocortin receptor 4 = Melanocortin receptor 4 (Homo sapiens, UniProt P32245); experiment: inhibitors of MC4R cAMP signaling – cell-based, TR-FRET, biased antagonists, dose response (AID 602298); type: functional;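 further: antagonist potency against agonist-stimulated cAMP production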
[12] = target: Mitochondrial peptide methionine sulfoxide reductase (Bos taurus, UniProt P54149); type: functional;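 further: absorbance read-out, biochemical high-throughput dose-response screen for MsrA inhibitors, confirmatory; recombinant bovine MsrA coupled to E. coli TrxB with NADPH and selenocystamine; potency is for inhibitors of MsrA activity on DMSO substrate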
Mitochondrial peptide methionine sulfoxide reductase, sequence (P54149 whole entry): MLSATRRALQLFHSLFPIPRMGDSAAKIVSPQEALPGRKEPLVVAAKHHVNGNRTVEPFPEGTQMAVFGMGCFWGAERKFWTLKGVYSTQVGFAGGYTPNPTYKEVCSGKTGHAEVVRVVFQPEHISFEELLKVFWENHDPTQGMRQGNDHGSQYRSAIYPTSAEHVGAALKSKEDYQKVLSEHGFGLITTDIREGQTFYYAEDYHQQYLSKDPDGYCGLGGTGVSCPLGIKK

T3 sequence (P49327 whole entry): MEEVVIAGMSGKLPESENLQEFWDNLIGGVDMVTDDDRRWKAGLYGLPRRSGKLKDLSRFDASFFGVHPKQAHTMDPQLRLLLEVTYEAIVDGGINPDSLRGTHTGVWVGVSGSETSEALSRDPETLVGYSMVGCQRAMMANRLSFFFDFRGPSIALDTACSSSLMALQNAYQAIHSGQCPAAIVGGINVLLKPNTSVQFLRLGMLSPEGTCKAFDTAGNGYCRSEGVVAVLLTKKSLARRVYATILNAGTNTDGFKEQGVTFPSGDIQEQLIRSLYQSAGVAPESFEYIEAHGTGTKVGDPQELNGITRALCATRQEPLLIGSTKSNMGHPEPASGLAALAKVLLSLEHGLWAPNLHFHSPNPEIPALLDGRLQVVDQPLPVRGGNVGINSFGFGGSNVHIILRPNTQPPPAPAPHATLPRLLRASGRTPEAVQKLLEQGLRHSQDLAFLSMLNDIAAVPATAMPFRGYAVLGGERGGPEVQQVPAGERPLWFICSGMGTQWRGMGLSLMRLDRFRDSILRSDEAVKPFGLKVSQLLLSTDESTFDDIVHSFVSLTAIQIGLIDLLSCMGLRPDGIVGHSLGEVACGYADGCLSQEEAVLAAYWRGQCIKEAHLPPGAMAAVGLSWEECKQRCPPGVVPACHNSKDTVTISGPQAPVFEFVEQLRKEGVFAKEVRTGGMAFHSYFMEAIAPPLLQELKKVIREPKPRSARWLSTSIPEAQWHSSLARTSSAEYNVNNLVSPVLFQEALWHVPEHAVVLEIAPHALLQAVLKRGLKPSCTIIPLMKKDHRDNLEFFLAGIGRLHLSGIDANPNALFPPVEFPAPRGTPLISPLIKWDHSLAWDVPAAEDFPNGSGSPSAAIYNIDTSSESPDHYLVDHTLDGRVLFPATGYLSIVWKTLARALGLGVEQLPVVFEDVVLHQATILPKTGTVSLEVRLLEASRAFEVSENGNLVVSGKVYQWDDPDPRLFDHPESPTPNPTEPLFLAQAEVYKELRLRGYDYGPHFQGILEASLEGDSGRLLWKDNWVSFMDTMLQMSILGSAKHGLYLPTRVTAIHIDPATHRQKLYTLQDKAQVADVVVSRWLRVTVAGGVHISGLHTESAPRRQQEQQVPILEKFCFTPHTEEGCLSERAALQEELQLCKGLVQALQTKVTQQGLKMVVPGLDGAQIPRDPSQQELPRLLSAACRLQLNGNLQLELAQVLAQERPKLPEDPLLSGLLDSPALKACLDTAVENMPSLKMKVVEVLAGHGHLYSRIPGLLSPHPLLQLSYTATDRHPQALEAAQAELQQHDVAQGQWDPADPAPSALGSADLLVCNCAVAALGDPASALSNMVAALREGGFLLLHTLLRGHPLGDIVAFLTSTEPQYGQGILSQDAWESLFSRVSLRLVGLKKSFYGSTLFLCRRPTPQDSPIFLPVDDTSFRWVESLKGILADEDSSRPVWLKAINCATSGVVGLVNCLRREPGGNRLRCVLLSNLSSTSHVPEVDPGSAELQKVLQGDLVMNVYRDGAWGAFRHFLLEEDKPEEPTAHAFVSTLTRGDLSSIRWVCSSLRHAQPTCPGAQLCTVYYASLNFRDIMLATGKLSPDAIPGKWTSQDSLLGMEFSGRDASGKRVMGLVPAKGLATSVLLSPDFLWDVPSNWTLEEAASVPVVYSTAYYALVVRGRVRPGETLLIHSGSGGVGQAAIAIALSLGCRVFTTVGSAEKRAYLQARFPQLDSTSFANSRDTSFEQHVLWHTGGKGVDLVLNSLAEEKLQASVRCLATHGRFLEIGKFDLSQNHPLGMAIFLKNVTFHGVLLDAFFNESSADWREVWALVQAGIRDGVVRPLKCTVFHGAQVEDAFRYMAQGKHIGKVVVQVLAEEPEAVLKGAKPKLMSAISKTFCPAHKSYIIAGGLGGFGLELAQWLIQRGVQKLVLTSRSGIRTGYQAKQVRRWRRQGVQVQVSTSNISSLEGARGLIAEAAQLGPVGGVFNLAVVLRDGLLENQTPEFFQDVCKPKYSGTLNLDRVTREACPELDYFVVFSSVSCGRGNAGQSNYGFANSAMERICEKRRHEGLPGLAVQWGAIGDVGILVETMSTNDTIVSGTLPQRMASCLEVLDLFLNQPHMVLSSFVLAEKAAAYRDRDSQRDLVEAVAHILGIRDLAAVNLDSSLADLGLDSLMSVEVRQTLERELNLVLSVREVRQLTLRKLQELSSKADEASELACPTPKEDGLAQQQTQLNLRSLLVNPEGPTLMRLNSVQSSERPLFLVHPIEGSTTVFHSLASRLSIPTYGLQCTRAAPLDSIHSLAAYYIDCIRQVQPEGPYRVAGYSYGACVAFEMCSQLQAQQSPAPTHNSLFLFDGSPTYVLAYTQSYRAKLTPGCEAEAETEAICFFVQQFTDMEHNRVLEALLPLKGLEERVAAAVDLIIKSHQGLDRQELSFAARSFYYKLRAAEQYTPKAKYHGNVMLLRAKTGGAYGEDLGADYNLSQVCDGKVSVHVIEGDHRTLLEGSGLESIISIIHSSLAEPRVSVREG
Melanocortin receptor 4, sequence (P32245 whole entry): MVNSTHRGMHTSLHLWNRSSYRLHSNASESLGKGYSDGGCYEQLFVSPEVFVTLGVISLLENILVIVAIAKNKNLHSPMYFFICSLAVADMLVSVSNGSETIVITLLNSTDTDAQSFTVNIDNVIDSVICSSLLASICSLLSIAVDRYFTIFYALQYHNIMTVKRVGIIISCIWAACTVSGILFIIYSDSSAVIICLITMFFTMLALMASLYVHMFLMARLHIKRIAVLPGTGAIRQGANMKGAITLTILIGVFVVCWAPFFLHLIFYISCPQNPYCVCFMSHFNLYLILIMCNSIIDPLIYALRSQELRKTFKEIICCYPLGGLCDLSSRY
Adenosylmethionine-8-amino-7-oxononanoate aminotransferase, sequence (P9WQ81 whole entry): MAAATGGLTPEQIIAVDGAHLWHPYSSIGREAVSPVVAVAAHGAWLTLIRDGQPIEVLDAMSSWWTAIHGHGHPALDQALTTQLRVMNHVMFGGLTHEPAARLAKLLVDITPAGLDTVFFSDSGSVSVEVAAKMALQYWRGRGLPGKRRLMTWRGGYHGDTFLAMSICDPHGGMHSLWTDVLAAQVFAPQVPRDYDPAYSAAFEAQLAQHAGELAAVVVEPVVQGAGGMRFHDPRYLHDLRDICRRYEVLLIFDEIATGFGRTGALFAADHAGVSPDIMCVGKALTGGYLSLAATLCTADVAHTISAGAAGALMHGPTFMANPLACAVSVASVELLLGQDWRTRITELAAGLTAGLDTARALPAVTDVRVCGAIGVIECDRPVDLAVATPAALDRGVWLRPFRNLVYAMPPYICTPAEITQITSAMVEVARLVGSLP
5-hydroxytryptamine receptor 2A, sequence (P35363 whole entry): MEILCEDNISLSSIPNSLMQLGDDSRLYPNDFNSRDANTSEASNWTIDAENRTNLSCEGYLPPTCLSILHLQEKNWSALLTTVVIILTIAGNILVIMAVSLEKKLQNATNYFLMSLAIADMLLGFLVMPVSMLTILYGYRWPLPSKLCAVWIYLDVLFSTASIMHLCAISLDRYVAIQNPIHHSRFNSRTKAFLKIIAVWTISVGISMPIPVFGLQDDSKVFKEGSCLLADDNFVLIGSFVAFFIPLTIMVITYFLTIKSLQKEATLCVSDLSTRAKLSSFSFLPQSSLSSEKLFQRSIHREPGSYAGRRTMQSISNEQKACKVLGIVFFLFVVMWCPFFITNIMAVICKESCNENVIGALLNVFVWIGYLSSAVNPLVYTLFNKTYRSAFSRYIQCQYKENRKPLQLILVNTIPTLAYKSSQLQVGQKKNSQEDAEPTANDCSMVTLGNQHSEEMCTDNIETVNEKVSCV
Cytochrome P450 2D6, sequence (P10635 whole entry): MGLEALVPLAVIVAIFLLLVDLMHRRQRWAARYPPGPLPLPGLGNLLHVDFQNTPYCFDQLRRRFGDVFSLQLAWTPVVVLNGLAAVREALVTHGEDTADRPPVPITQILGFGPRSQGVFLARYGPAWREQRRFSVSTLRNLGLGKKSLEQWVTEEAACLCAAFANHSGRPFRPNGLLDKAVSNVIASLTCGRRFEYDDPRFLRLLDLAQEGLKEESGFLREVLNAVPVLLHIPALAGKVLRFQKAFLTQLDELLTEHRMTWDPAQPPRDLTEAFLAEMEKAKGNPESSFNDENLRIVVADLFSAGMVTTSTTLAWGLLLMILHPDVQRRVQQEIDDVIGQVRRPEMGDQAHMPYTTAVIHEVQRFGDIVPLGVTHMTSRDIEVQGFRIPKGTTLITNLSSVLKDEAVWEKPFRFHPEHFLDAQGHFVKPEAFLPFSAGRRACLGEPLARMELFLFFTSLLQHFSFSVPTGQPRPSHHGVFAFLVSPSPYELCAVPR
Benomyl/methotrexate resistance protein, sequence (P28873 whole entry): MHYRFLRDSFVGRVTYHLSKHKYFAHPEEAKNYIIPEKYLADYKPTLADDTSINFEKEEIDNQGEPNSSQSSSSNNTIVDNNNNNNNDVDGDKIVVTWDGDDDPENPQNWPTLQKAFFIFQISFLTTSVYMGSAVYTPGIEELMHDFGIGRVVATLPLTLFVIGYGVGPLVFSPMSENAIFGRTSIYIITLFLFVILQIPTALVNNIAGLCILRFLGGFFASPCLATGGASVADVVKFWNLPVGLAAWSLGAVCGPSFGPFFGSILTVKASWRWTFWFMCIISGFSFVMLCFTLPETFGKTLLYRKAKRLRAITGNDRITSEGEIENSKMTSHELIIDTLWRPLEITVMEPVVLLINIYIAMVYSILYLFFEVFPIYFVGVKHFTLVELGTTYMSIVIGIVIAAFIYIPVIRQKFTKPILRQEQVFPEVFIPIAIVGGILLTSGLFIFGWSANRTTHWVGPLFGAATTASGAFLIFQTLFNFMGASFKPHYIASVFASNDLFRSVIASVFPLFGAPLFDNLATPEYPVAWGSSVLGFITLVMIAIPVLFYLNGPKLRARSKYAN

Cc1ccc(Cc2c(C)nc3nc(SCC(=O)NCc4ccco4)nn3c2C)cc1
AC50 [1]: 4.86 µM (active)
AC50 (Cytochrome P450 2D6): 25.1 µM (inconclusive)
AC50 (Cytochrome P450 3A4): 3.16 µM (inconclusive)
AC50 (Cytochrome P450 1A2): 0.00631 µM (inconclusive)

O=[N+]([O-])c1ccc2ncnc(N3CCN(Cc4ccc5c(c4)OCO5)CC3)c2c1
AC50 [2]: 35.6 µM (active)
IC50 (Interleukin-8 [3]): 40.4 µM (inactive)
EC50 (Mu-type opioid receptor): 92.5 µM (inactive)
IC50 (Fatty acid synthase [4]): 1.39 µM (active)
EC50 [5]: 3.78 µM (active)
IC50 (Interleukin-8 [6]): 47.9 µM (inactive)
AC50 [7]: 26.5 µM (active)
AC50 [8]: 2.73 µM (active)
IC50 (Fatty acid synthase [9]): 0.843 µM (active)
AC50 (HEK293): 5.4 µM (active)

COc1cccc(C2CC(c3ccccc3)=NN2S(=O)(=O)c2ccc(C)cc2)c1OC (stereo not drawn)
EC50 [10]: 9.58 µM (active)

Cc1[nH]c(C)c(C(=O)/C=C/c2ccc([N+](=O)[O-])cc2)c1C
IC50 [11]: > 64.6 µM (inactive)
IC50 (Melanocortin receptor 4): > 64.6 µM (inactive)

CCCCCOC(=O)C(C)c1c(C)nc(S)nc1O (stereo not drawn)
IC50 [12]: 115 µM (inactive)
